Assay results published in publication PMC4861610 (Drug Design, Development and Therapy, 2016).

Experiments:
[1] = MTT cytotoxicity assay, normal liver HL7702 cells; format: cell-based, human; details: human, HL7702 normal liver cells
[2] = molecular target: EGFR (Homo sapiens, UniProt P00533); experiment: LANCE Ultra TR-FRET kinase selectivity assay, EGFR; format: biochemical
[3] = molecular target: T1, FLT3 (Homo sapiens, UniProt P36888); experiment: LANCE Ultra TR-FRET kinase selectivity assay, FLT3; format: biochemical
T1 sequence (P36888 27-993): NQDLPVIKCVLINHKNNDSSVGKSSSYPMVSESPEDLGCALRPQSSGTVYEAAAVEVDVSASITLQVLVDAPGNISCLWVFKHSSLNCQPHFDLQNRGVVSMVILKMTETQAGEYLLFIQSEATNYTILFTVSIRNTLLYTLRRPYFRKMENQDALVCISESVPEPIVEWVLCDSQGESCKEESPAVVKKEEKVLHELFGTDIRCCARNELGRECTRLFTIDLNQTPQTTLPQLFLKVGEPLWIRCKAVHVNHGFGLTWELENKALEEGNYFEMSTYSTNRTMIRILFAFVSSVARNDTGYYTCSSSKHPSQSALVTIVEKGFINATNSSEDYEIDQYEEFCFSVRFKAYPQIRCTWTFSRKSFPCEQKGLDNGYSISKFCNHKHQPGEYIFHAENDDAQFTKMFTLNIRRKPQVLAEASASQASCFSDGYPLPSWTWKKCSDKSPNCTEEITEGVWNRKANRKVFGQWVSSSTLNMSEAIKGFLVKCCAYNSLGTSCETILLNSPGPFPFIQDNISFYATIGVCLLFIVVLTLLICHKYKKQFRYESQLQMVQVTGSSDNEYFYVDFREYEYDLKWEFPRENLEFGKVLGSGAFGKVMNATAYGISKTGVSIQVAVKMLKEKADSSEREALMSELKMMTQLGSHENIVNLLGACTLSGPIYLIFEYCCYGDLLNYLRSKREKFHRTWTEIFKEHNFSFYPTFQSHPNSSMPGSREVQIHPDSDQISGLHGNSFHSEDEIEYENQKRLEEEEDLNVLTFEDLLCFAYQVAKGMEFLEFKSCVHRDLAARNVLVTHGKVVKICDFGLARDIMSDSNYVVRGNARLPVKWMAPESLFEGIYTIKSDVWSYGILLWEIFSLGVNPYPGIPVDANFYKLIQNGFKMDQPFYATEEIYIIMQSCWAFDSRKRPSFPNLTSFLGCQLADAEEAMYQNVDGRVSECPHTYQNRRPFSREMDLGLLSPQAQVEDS

[4] = molecular target: FGFR1 kinase (Homo sapiens, UniProt P11362); experiment: LANCE Ultra TR-FRET kinase assay, FGFR1; format: biochemical; details: for Selectivity ratio: ratio of the second lowest IC50 against the lowest IC50 value among FLT3, FGFR1-3, PDGFR-β, EGFR
[5] = molecular target: FGFR2 (Homo sapiens, UniProt P21802); experiment: LANCE Ultra TR-FRET kinase selectivity assay, FGFR2; format: biochemical
[6] = molecular target: PDGFR-β (Homo sapiens, UniProt P09619); experiment: LANCE Ultra TR-FRET kinase selectivity assay, PDGFR-β; format: biochemical
[7] = molecular target: FGFR3 (Homo sapiens, UniProt P22607); experiment: LANCE Ultra TR-FRET kinase selectivity assay, FGFR3; format: biochemical
[8] = tested on: HL7702 cells; experiment: MTT cytotoxicity assay, normal liver HL7702 cells; format: cell-based, human; details: 2 and 10 µM, Figure 5A and B

Sequence of FGFR2 (P21802 22-821, species assumed): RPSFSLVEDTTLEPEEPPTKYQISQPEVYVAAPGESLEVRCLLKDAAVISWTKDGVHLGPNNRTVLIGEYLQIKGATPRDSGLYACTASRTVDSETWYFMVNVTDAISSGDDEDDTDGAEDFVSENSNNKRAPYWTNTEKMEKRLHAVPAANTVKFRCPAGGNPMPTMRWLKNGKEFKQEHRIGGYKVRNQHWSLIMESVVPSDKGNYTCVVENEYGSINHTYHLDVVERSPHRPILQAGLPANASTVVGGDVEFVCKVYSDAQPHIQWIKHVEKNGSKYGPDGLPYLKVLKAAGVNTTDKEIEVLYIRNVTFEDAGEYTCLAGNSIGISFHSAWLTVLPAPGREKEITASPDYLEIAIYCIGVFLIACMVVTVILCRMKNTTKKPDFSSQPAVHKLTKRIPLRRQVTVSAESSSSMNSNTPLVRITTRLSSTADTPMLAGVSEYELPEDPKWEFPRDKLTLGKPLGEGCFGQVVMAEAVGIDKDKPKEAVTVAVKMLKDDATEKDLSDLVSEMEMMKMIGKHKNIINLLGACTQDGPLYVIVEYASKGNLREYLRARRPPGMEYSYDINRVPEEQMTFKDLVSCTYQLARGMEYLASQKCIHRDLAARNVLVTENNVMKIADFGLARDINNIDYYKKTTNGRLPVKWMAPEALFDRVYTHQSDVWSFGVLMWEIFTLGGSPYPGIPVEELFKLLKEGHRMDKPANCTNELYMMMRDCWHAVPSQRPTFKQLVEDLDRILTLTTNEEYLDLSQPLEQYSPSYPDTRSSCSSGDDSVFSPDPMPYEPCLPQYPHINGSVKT
Sequence of FGFR1 kinase (P11362 478-767 limits assumed): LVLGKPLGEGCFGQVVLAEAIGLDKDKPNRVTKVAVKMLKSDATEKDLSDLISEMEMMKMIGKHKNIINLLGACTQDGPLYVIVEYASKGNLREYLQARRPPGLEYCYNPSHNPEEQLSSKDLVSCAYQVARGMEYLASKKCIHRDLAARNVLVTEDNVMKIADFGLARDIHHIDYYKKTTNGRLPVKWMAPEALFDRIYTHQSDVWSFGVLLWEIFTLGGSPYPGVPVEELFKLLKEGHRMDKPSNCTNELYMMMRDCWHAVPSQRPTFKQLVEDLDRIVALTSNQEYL
Sequence of FGFR3 (P22607 23-806, species assumed): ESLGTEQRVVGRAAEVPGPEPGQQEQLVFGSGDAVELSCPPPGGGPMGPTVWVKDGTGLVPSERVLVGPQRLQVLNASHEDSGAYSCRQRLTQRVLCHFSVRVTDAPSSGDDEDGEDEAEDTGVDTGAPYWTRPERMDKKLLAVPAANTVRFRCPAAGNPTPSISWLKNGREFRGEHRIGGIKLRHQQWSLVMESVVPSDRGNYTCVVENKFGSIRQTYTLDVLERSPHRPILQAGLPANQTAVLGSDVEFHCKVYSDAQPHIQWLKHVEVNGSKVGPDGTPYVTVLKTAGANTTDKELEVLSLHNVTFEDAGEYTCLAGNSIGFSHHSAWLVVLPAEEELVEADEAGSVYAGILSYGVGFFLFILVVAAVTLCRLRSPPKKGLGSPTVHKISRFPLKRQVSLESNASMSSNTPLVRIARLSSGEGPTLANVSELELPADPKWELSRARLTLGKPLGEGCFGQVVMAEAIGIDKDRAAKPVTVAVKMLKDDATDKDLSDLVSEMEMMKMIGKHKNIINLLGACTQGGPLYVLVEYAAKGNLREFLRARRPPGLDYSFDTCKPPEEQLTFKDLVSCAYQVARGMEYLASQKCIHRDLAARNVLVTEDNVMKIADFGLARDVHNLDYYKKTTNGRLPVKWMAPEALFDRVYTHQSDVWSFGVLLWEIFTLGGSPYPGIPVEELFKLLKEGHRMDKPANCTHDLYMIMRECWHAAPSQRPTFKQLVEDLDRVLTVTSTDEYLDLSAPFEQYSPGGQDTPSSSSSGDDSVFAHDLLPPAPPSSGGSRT
Sequence of PDGFR-β (P09619 33-1106, species assumed): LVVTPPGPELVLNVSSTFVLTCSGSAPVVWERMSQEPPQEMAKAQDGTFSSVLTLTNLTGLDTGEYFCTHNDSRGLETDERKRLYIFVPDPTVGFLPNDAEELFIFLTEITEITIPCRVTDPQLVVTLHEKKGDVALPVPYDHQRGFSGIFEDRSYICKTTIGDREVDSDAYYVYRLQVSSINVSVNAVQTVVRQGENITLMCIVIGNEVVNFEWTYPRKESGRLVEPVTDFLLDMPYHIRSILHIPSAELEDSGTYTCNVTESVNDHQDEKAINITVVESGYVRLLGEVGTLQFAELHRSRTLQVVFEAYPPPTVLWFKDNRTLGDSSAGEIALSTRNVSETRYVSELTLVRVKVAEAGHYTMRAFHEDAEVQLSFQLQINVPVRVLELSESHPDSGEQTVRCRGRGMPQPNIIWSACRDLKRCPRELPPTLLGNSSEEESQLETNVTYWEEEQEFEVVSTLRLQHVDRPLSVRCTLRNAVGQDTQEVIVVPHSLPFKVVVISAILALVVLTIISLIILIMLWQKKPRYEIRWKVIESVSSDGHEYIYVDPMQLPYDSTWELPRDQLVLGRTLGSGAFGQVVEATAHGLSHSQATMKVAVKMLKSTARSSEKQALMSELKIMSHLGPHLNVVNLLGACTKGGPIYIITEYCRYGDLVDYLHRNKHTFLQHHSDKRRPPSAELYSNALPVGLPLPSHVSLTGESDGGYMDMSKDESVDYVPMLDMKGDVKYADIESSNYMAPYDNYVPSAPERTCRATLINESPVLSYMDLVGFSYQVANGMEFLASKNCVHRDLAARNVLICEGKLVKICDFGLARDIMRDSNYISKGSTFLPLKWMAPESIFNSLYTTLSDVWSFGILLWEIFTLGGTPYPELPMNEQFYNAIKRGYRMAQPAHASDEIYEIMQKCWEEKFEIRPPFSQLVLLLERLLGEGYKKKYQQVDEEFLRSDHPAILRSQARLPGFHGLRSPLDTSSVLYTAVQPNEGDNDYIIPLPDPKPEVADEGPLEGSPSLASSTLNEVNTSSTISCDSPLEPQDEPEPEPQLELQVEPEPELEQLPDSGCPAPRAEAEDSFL
Sequence of EGFR (P00533 25-1210, species assumed): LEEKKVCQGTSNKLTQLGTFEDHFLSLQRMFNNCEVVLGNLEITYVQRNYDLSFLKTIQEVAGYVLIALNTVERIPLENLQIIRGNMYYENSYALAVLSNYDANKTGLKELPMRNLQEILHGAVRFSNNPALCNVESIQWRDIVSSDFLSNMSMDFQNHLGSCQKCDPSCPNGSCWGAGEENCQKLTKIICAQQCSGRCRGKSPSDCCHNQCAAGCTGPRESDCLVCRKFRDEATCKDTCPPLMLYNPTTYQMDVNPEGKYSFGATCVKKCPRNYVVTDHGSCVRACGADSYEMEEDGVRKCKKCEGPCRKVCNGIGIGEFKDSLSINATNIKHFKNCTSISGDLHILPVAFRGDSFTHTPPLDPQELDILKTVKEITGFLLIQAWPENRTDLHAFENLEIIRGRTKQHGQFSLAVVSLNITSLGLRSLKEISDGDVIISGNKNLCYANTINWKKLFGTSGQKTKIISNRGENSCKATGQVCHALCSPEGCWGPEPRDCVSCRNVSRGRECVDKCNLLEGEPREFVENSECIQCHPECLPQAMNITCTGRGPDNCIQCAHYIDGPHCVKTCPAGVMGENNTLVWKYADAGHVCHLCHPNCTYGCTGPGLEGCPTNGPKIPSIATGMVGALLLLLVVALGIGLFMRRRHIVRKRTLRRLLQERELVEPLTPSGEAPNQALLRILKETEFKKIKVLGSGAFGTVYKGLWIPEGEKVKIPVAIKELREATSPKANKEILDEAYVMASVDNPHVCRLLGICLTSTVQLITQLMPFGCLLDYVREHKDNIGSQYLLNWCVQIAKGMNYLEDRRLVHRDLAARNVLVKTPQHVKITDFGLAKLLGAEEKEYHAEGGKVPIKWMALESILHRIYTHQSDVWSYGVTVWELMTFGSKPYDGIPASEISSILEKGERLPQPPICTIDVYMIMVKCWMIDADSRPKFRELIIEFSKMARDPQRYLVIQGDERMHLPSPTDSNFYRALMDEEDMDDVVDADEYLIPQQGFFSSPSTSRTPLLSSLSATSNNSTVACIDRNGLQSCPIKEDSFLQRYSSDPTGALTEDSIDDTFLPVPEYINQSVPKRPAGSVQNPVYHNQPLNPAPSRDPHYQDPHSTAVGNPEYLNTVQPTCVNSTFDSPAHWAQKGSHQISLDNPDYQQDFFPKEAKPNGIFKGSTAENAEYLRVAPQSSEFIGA

**Q.** For O=c1c(/C=C/c2ccccc2F)nc2ccccc2n1Cc1ccccc1 [C4, (E)-3-[2-(2-Fluorophenyl)ethenyl]-1,2-dihydro-1-phenylmethyl-quinoxalin-2-one], which IC50 at 72 h [1] is on record?
**A.** > 100 µM

**Q.** With CN1CCN(c2nc3ccccc3nc2/C=C/c2ccccc2F)CC1 [D3, (E)-2-(4-Methylpiperazin-1-yl)-3-[2-(2-fluorophenyl)ethenyl]-quinoxalin] as the molecule, how does the IC50 at 72 h [1] read?
**A.** > 100 µM

**Q.** With Oc1nc2ccccc2nc1/C=C/c1ccc(F)cc1 [A4, (E)-3-[2-(4-Fluorophenyl)ethenyl]-1,2-dihydro-quinoxalin-2-one] as the molecule, how does the IC50 at 72 h [1] read?
**A.** 67.9 ± 1.94 µM

**Q.** For Cn1c(=O)c(/C=C/c2ccccc2Cl)nc2ccccc21 [B2, (E)-3-[2-(2-Chlorophenyl)ethenyl]-1,2-dihydro-1-methyl-quinoxalin-2-one], which IC50 [2] is on record?
**A.** > 100 µM

**Q.** What about the IC50 [3] of the same molecule?
**A.** > 100 µM

**Q.** And the IC50 [4]?
**A.** 26.1 ± 1.32 µM

**Q.** And the IC50 [5]?
**A.** > 100 µM

**Q.** What about the IC50 at 72 h [1] of the same molecule?
**A.** > 100 µM

**Q.** What about the IC50 [6] of the same molecule?
**A.** > 100 µM

**Q.** And the IC50 [7]?
**A.** > 100 µM

**Q.** Which results are given for O=c1[nH]c2ccccc2nc1/C=C/c1ccccc1Cl [A2, (E)-1,2-Dihydro-3-[2-(2-chlorophenyl)ethenyl]-quinoxalin-2-one]?
**A.** IC50 [2]: > 100 µM; IC50 [3]: > 100 µM; IC50 [4]: 21.5 ± 2.24 µM; Selectivity ratio [4]: 2.57; IC50 [5]: > 100 µM; IC50 at 72 h [1]: 41.5 ± 7.56 µM; IC50 [6]: 55.4 ± 1.72 µM; IC50 [7]: 75.1 ± 2.56 µM

**Q.** With Cn1c(=O)c(/C=C/c2ccc(F)cc2)nc2ccccc21 [B4, (E)-1,2-Dihydro-3-[2-(4-fluorophenyl)ethenyl]-1-methyl-quinoxalin-2-one] as the molecule, how does the IC50 at 72 h [1] read?
**A.** > 100 µM

**Q.** Which results are given for Cn1c(=O)c(/C=C/c2ccccn2)nc2ccccc21 [B5, (E)-3-[2-(Pyridine-2-yl)ethenyl]-1,2-dihydro-1-methyl-quinoxalin-2-one]?
**A.** IC50 [2]: > 100 µM; IC50 [3]: > 100 µM; IC50 [5]: > 100 µM; IC50 [6]: 89.5 ± 3.56 µM; IC50 [7]: > 100 µM

**Q.** Which IC50 at 72 h [1] does the source give for O=c1[nH]c2ccccc2nc1/C=C/c1ccc(C(F)(F)F)cc1 [A11, (E)-1,2-Dihydro-3-[2-(4-trifluoromethylphenyl)ethenyl]-quinoxalin-2-one] here?
**A.** > 100 µM

**Q.** With O=c1[nH]c2ccccc2nc1/C=C/c1ccccc1 [A1, (E)-1,2-Dihydro-3-(2-phenylethenyl) quinoxalin-2-one] as the molecule, how does the IC50 [2] read?
**A.** > 100 µM

**Q.** What about the IC50 [3] of the same molecule?
**A.** > 100 µM

**Q.** And the IC50 [4]?
**A.** 23.2 ± 1.12 µM

**Q.** And the Selectivity ratio [4]?
**A.** 3.86

**Q.** And the IC50 [5]?
**A.** > 100 µM

**Q.** What about the IC50 at 72 h [1] of the same molecule?
**A.** > 100 µM

**Q.** And the IC50 [6]?
**A.** > 100 µM

**Q.** What about the IC50 [7] of the same molecule?
**A.** 89.6 ± 3.32 µM

**Q.** For Cn1c(=O)c(/C=C/c2ccccc2)nc2ccccc21 [B1, (E)-1,2-Dihydro-1-methyl-3-(2-phenylethenyl)-quinoxalin-2-one], which IC50 at 72 h [1] is on record?
**A.** > 100 µM

**Q.** For O=c1[nH]c2ccccc2nc1/C=C/c1ccco1 [A8, (E)-3-[2-(Furan-2-yl)ethenyl]-1,2-dihydro-quinoxalin-2-one], which IC50 at 72 h [1] is on record?
**A.** > 100 µM

**Q.** With O=c1[nH]c2ccccc2nc1/C=C/c1ccccc1F [A6, (E)-3-[2-(2-Fluorophenyl)ethenyl]-1,2-dihydro-quinoxalin-2-one] as the molecule, how does the IC50 at 72 h [1] read?
**A.** > 100 µM

**Q.** With Cn1c(=O)c(/C=C/c2ccccc2Br)nc2ccccc21 [B3, (E)-3-[2-(2-Bromophenyl)ethenyl]-1,2-dihydro-1-methyl-quinoxalin-2-one] as the molecule, how does the IC50 at 72 h [1] read?
**A.** 49 ± 1.31 µM

**Q.** For COc1cccc(/C=C/c2nc3ccccc3[nH]c2=O)c1OC [A9, (E)-1,2-Dihydro-3-[2-(2,3-dimethoxyphenyl)ethenyl]-quinoxalin-2-one], which IC50 at 72 h [1] is on record?
**A.** > 100 µM

**Q.** Which results are given for O=c1[nH]c2ccccc2nc1/C=C/c1ccccn1 [A5, (E)-3-[2-(Pyridine-2-yl)ethenyl]-1,2-dihydro-quinoxalin-2-one]?
**A.** IC50 [2]: > 100 µM; IC50 [3]: > 100 µM; inhibition ratio of FGFR1 ([4]; at 10.0 µM): 79.33%; IC50 [5]: > 100 µM; IC50 at 72 h [1]: > 100 µM; survival rate of HL7702 cells compared with TKI258 [8]: higher survival rate; IC50 [6]: > 100 µM; IC50 [7]: > 100 µM

**Q.** Which IC50 at 72 h [1] does the source give for Fc1ccccc1/C=C/c1nc2ccccc2nc1Cl [D1, (E)-2-Chloro-3-[2-(2-fluorophenyl)ethenyl]-quinoxalin] here?
**A.** 40.2 ± 1.85 µM

**Q.** With O=c1c(/C=C/c2ccccc2Cl)nc2ccccc2n1Cc1ccccc1 [C2, (E)-3-[2-(2-Chlorophenyl)ethenyl]-1,2-dihydro-1-phenylmethyl-quinoxalin-2-one] as the molecule, how does the IC50 [2] read?
**A.** > 100 µM

**Q.** What about the IC50 [3] of the same molecule?
**A.** > 100 µM

**Q.** And the Selectivity ratio [4]?
**A.** 3.68

**Q.** And the IC50 [5]?
**A.** > 100 µM

**Q.** What about the IC50 at 72 h [1] of the same molecule?
**A.** > 100 µM

**Q.** What about the IC50 [6] of the same molecule?
**A.** > 100 µM

**Q.** With O=c1[nH]c2ccccc2nc1/C=C/c1ccc2ccccc2c1 [A13, (E)-1,2-Dihydro-3-[2-(naphth-2-yl)ethenyl]-quinoxalin-2-one] as the molecule, how does the IC50 at 72 h [1] read?
**A.** > 100 µM

**Q.** With O=c1c(/C=C/c2ccccc2)nc2ccccc2n1Cc1ccccc1 [C1, (E)-1,2-Dihydro-3-(2-phenylethenyl)-1-phenylmethyl-quinoxalin-2-one] as the molecule, how does the IC50 at 72 h [1] read?
**A.** > 100 µM

**Q.** For O=c1[nH]c2ccccc2nc1/C=C/c1cccs1 [A7, (E)-3-[2-(Thiophene-2-yl)ethenyl]-1,2-dihydro-quinoxalin-2-one], which IC50 at 72 h [1] is on record?
**A.** 83.2 ± 8.12 µM

**Q.** With O=c1c(/C=C/c2ccccc2Br)nc2ccccc2n1Cc1ccccc1 [C3, (E)-3-[2-(2-Bromophenyl)ethenyl]-1,2-dihydro-1-phenylmethyl-quinoxalin-2-one] as the molecule, how does the IC50 at 72 h [1] read?
**A.** > 100 µM

**Q.** With CN1CCN(c2ccc3nc(-c4c(N)c5c(F)cccc5[nH]c4=O)[nH]c3c2)CC1 [TKI258, reference compound] as the molecule, how does the IC50 at 72 h [1] read?
**A.** 32.8 ± 2.38 µM

**Q.** With O=c1c(/C=C/c2ccccn2)nc2ccccc2n1Cc1ccccc1 [C5, (E)-3-[2-(Pyridine-2-yl)ethenyl]-1,2-dihydro-1-phenylmethyl-quinoxalin-2-one] as the molecule, how does the IC50 at 72 h [1] read?
**A.** 35.8 ± 2.17 µM

**Q.** With O=c1[nH]c2ccccc2nc1/C=C/c1ccccc1[N+](=O)[O-] [A10, (E)-1,2-Dihydro-3-[2-(2-nitrophenyl)ethenyl]-quinoxalin-2-one] as the molecule, how does the IC50 at 72 h [1] read?
**A.** 68.2 ± 5.96 µM
